According to US20040167034A1, “Emulsion and dispersion formulations and method” (priority 2001, published 2004):

How the values were obtained:
[1] = background statement; cited from earlier work
[2] = Stability of closantel and levamisole combination at 30° C. (HPLC); format: physicochemical; conditions: closantel and levamisole combination incubated at 30° C.
Procedure: Stability of Closantel and Levamisole Combination at 30° C.
The mixture was analysed by HPLC at times zero, 3 and 12 months.

[3] = Pharmacokinetics of silymarin (plasma silybin a and b, HPLC); conditions: in vivo, 260 mg
Procedure: Pharmacokinetics of silymarin administered in various delivery systems, comparing a powdered extract of silymarin containing 28% silybin a and b and a silymarin:lecithin complex as described in Example 2 of silymarin containing the same amount of silybin a and b.
Silymarin was administered at a dose of 260 mg silybin a and b.
Blood samples were collected at 0, 2, 4, and 6 hours after administration and analysed by HPLC.
Silybin a and b were analysed as conjugated and unconjugated silybin a and b.

Row | AUC of conjugated silybin A and B [3] [ng/h/mL] | AUC of free silybin A and B [3] [ng/h/mL] | Compound | absorption [1] | content at 0 months [2] [g %] | content at 3 months [2] [g %] | content at 12 months [2] [g %]
1 |  |  | [Cr] [chromium] | 1-3% |  |  | 
2 |  |  | Cc1cc(C(C#N)c2ccc(Cl)cc2)c(Cl)cc1NC(=O)c1cc(I)cc(I)c1O (stereo not drawn) [closantel] |  | 3.75 | 3.72 | 3.69
3 |  |  | c1ccc([C@H]2CN3CCSC3=N2)cc1 [levamisole] |  | 3.21 | 3.19 | 3.17
4 | 191 | 6 | Silymarin |  |  |  | 
